Data: ChEMBL document CHEMBL4004873, “SAR of amino pyrrolidines as potent and novel protein-protein interaction inhibitors of the PRC2 complex through EED binding” (Bioorg Med Chem Lett, 2017)
One block for each molecule: values may come before it.

Key:
[1] = biological target: T1, Polycomb protein EED (Homo sapiens, UniProt O75530); assay: Inhibition of OG(488) labeled probe binding to GST-tagged EED (unknown origin) after 1 hr by LanthaScreen TR-FRET assay
[2] = Intrinsic clearance in mouse liver microsomes at 0.5 uM by HPLC-MS/MS method; type: ADME, microsome; details: read-out: CLH
[3] = system: Pfeiffer; assay: Antiproliferative activity against human Pfeiffer cells after 10 days by celltiter-glo luminescent cell viability Assay; type: functional, cell-based; details: 240 h
[4] = Permeability of the compound by PAMPA; type: physicochemical; details: read-out: permeability
[5] = biological target: T1, Polycomb protein EED; assay: Inhibition of EED in human G401 cells assessed as reduction in H3K27 trymethylation measured after 6 days by alphaLISA method; type: cell-based
[6] = biological target: T1, Polycomb protein EED; assay: Inhibition of EED in human OCILY19 cells assessed as reduction in H3K27 trymethylation measured after 6 days by alphaLISA method; type: cell-based
[7] = system: Liver; assay: Unbound intrinsic clearance in mouse liver microsomes at 0.5 uM by HPLC-MS/MS method; type: ADME, microsome

T1 sequence (O75530 whole entry): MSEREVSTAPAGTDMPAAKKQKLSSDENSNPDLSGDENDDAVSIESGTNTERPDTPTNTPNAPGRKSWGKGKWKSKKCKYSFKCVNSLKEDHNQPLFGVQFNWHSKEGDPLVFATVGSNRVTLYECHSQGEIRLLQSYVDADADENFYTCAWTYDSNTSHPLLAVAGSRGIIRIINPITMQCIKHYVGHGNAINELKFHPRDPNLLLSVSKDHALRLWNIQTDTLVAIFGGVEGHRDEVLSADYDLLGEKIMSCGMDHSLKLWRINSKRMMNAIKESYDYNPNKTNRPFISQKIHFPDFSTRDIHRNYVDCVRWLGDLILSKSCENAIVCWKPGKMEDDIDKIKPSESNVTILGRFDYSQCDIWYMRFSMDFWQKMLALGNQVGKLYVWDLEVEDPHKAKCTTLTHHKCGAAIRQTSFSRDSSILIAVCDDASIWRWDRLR

- Ki [1]: 0.129 µM
- CLint scaled at 0.5 µM [2]: > 1000 L/h/kg
SMILES: CN(C)[C@H]1CN([C@@H]2CCc3cccc(F)c32)C[C@@H]1c1cn(C)c2ccccc12

- CL free [7]: 9900 L/h/kg
- Ki [1]: 0.0021 µM
SMILES: Cc1cccc(F)c1CN1C[C@H](c2ccc(N3CCN(c4ccccn4)CC3)cc2)[C@@H](N(C)C)C1 (racemic)

- Ki [1]: > 50 µM
SMILES: CN(C)[C@H]1CN(Cc2nccn2C)C[C@@H]1c1cn(C)c2ccccc12 (racemic)

- Ki [1]: 0.049 µM
SMILES: CN(C)[C@H]1CN(Cc2c(F)cccc2Br)C[C@@H]1c1ccncc1 (racemic)

- Ki [1]: 0.00065 µM
SMILES: Cc1cccc(F)c1CN1C[C@H](C2CCN(c3cnc(C(N)=O)cn3)CC2)[C@@H](N(C)C)C1 (racemic)

- CL free [7]: 276 L/h/kg
- Ki [1]: 0.0053 µM
SMILES: Cc1cccc(F)c1CN1C[C@H](c2cn(CC(=O)N(C)C)c3ncccc23)[C@@H](N(C)C)C1 (racemic)

- CL free [7]: 170 L/h/kg
- Ki [1]: 0.0026 µM
SMILES: CC(=O)N1CCN(c2ccc([C@H]3CN(Cc4c(C)cccc4F)C[C@@H]3N(C)C)cc2)CC1 (racemic)

- Ki [1]: 0.078 µM
SMILES: CN(C)[C@H]1CN([C@H]2CCCc3ccccc32)C[C@@H]1c1cn(C)c2ccccc12 (racemic)

- Ki [1]: 0.23 µM
SMILES: CN(C)[C@H]1CN(Cc2c(F)cccc2Br)C[C@@H]1C1CCCCC1 (racemic)

- Ki [1]: > 50 µM
SMILES: CN(C)[C@H]1CN(Cc2ccn3ccnc3c2)C[C@@H]1c1cn(C)c2ccccc12 (racemic)

- Ki [1]: 1.5 µM
- CLint scaled at 0.5 µM [2]: > 1000 L/h/kg
SMILES: CN(C)[C@H]1CN(Cc2ccccc2)C[C@@H]1c1cn(C)c2ccccc12 (racemic)

Second part, the molecule before the results:

SMILES: CN(C)C(=O)c1cccc2c([C@H]3CN(Cc4c(F)cccc4Br)C[C@@H]3N(C)C)cn(C)c12
- Ki [1]: 0.023 µM

SMILES: CN(C)[C@H]1CN([C@H]2CCc3cccc(F)c32)C[C@@H]1c1cn(C)c2ccccc12
- IC50 [3]: 1.1 µM
- Papp [4]: 10 to 30 nm/s
- Ki [1]: 0.011 µM
- IC50 [5]: 0.29 µM
- IC50 [6]: 0.66 µM
- CLint scaled at 0.5 µM [2]: > 1000 L/h/kg

SMILES: Cc1cccc(F)c1CN1C[C@H](c2cn(C)c3ccccc23)[C@@H](N(C)C)C1
- IC50 [3]: 3.3 µM
- Papp [4]: 10 to 30 nm/s
- Ki [1]: 0.012 µM
- IC50 [5]: 2.4 µM
- IC50 [6]: 2.4 µM
- CLint scaled at 0.5 µM [2]: > 1000 L/h/kg

SMILES: CN(C)[C@H]1CN([C@H]2COc3cccc(F)c32)C[C@@H]1c1cn(C)c2ccccc12
- Ki [1]: 0.61 µM

SMILES: CC(=O)N1CCN(c2ccc([C@H]3CN(C4CCc5cccc(F)c54)C[C@@H]3N(C)C)cc2)CC1 (mixture of isomers)
- CL free [7]: 220 L/h/kg
- IC50 [3]: 0.033 µM
- Ki [1]: 0.00029 µM
- IC50 [5]: 0.033 µM
- IC50 [6]: 0.05 µM

SMILES: Cc1cccc(F)c1CN1C[C@H](c2cn(C)c3c(N4CCN(C)C(=O)C4)cccc23)[C@@H](N(C)C)C1 (mixture of isomers)
- IC50 [3]: 0.098 µM
- Ki [1]: 0.00074 µM
- IC50 [5]: 0.19 µM
- IC50 [6]: 0.1 µM

SMILES: CN(C)[C@H]1CN(C2CCc3cccc(F)c32)C[C@@H]1C1CCN(c2ccc(C(N)=O)cn2)CC1 (mixture of isomers)
- CL free [7]: 120 L/h/kg
- IC50 [3]: 0.13 µM
- Ki [1]: 0.00045 µM
- IC50 [5]: 0.23 µM
- IC50 [6]: 0.28 µM

SMILES: Cc1cccc(F)c1CN1C[C@H](c2cn(C)c3c(C(=O)N4CC(F)C4)cccc23)[C@@H](N(C)C)C1 (mixture of isomers)
- CL free [7]: 1100 L/h/kg
- IC50 [3]: 0.065 µM
- Ki [1]: 0.001 µM
- IC50 [5]: 0.031 µM
- IC50 [6]: 0.18 µM

SMILES: Cc1cccc(F)c1CN1C[C@H](c2ccc(-c3cnn(CC(N)=O)c3)cc2)[C@@H](N(C)C)C1 (racemic)
- CL free [7]: 225 L/h/kg
- Ki [1]: 0.0026 µM

SMILES: Cc1cccc(F)c1CN1C[C@H](c2ccc(C3=CCN(C(=O)CS(C)(=O)=O)CC3)nc2)[C@@H](N(C)C)C1 (racemic)
- CL free [7]: 268 L/h/kg
- Ki [1]: 0.0046 µM

SMILES: CN(C)[C@H]1CN([C@H]2CCc3ncccc32)C[C@@H]1c1cn(C)c2ccccc12 (racemic)
- Ki [1]: 0.26 µM

SMILES: COc1ccccc1CN1C[C@H](c2cn(C)c3ccccc23)[C@@H](N(C)C)C1 (racemic)
- CLint scaled at 0.5 µM [2]: > 1000 L/h/kg

SMILES: CN(C)[C@H]1CN(Cc2c(F)cccc2Br)C[C@@H]1c1cn(C)c2ccccc12 (racemic)
- IC50 [3]: 9.5 µM
- Papp [4]: 10 to 30 nm/s
- Ki [1]: 0.013 µM
- IC50 [5]: 4.1 µM
- IC50 [6]: 8.3 µM
- CLint scaled at 0.5 µM [2]: > 1000 L/h/kg

SMILES: Cc1cccc(F)c1CN1C[C@H](c2ccccc2)[C@@H](N(C)C)C1 (racemic)
- CL free [7]: 1300 L/h/kg
- Ki [1]: 0.056 µM

SMILES: CCn1cc(CN2C[C@H](c3cn(C)c4ccccc34)[C@@H](N(C)C)C2)c(C)n1 (racemic)
- Ki [1]: > 50 µM

SMILES: CN(C)[C@H]1CN(Cc2c(F)cccc2Br)C[C@@H]1c1ccccc1 (racemic)
- Ki [1]: 0.078 µM

SMILES: CN(C)[C@H]1CN(Cc2c(F)cccc2Br)C[C@@H]1C1CC1 (racemic)
- Ki [1]: 0.071 µM

SMILES: CN(C)[C@H]1CN([C@H]2CCc3ccccc32)C[C@@H]1c1cn(C)c2ccccc12 (racemic)
- Ki [1]: 0.045 µM

SMILES: Cc1cccc(F)c1CN1C[C@H](c2ccc(C(=O)N(C)C)cc2)[C@@H](N(C)C)C1 (racemic)
- CL free [7]: 97 L/h/kg
- Ki [1]: 0.018 µM

SMILES: CN(C)[C@H]1CN(Cc2c(F)cccc2Cl)C[C@@H]1c1cn(C)c2ccccc12 (racemic)
- IC50 [3]: 3.3 µM
- Papp [4]: 10 to 30 nm/s
- Ki [1]: 0.053 µM
- IC50 [5]: 6.9 µM
- IC50 [6]: > 10 µM
- CLint scaled at 0.5 µM [2]: > 1000 L/h/kg

SMILES: C[C@H]1CN(Cc2c(F)cccc2Br)C[C@@H]1N(C)C (racemic)
- Ki [1]: 0.38 µM

SMILES: CN(C)[C@H]1CN(Cc2ccccc2F)C[C@@H]1c1cn(C)c2ccccc12 (racemic)
- Ki [1]: 0.33 µM
- CLint scaled at 0.5 µM [2]: > 1000 L/h/kg

SMILES: Cc1ccc(F)c(CN2C[C@H](c3cn(C)c4ccccc34)[C@@H](N(C)C)C2)c1 (racemic)
- Ki [1]: 0.16 µM
- CLint scaled at 0.5 µM [2]: > 1000 L/h/kg

SMILES: CN(C)[C@H]1CN(Cc2c(F)cccc2Br)C[C@@H]1C1CCOCC1 (racemic)
- Ki [1]: 0.059 µM

SMILES: Cc1nc2ncccn2c1CN1C[C@H](c2cn(C)c3ccccc23)[C@@H](N(C)C)C1 (racemic)
- Ki [1]: > 50 µM
